According to PubChem BioAssay AID2060912 (Molecular Pharmacology Branch, DTP, NCI, 2025):
pIC50: −log10 of the molar value.

System: HUVEC/MSC spheroids viability
Experiment: Human HUVEC/MSC cell line growth inhibition [KRAS2];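 on viability, T/C: percent of DMSO vehicle control luminescence so 100% = untreated viability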
Details: for pIC50: curve of first compound; for viability, T/C: stronger effect = lower value
Method in brief: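 Endothelial cells (HUVEC) plus mesenchymal stem cells, cultured at 37 °C/5% CO2 and assembled into spheroids without cancer cells, served as a stromal control. Drug pairs and single agents spanned half-log ranges anchored to clinical Cmax.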

[1] = second compound 0.0316 µM, first compound 0.0316 µM
[2] = second compound 0.0316 µM, first compound 0.1 µM
[3] = second compound 0.0316 µM, first compound 0.316 µM
[4] = second compound 0.0316 µM, first compound 1 µM
[5] = second compound 0.0316 µM, first compound 3.16 µM
[6] = second compound 0.0316 µM, first compound 10 µM
[7] = second compound 0.1 µM, first compound 0.0316 µM
[8] = second compound 0.1 µM, first compound 0.1 µM
[9] = second compound 0.1 µM, first compound 0.316 µM
[10] = second compound 0.1 µM, first compound 1 µM
[11] = second compound 0.1 µM, first compound 3.16 µM
[12] = second compound 0.1 µM, first compound 10 µM
[13] = second compound 0.316 µM, first compound 0.0316 µM
[14] = second compound 0.316 µM, first compound 0.1 µM
[15] = second compound 0.316 µM, first compound 0.316 µM
[16] = second compound 0.316 µM, first compound 1 µM
[17] = second compound 0.316 µM, first compound 3.16 µM
[18] = second compound 0.316 µM, first compound 10 µM
[19] = second compound 1 µM, first compound 0.0316 µM
[20] = second compound 1 µM, first compound 0.1 µM
[21] = second compound 1 µM, first compound 0.316 µM
[22] = second compound 1 µM, first compound 1 µM
[23] = second compound 1 µM, first compound 3.16 µM
[24] = second compound 1 µM, first compound 10 µM
[25] = second compound 3.16 µM, first compound 0.0316 µM
[26] = second compound 3.16 µM, first compound 0.1 µM
[27] = second compound 3.16 µM, first compound 0.316 µM
[28] = second compound 3.16 µM, first compound 1 µM
[29] = second compound 3.16 µM, first compound 3.16 µM
[30] = second compound 3.16 µM, first compound 10 µM
[31] = second compound 10 µM, first compound 0.0316 µM
[32] = second compound 10 µM, first compound 0.1 µM
[33] = second compound 10 µM, first compound 0.316 µM
[34] = second compound 10 µM, first compound 1 µM
[35] = second compound 10 µM, first compound 3.16 µM
[36] = second compound 10 µM, first compound 10 µM

SMILES: CC1COCCN1c1cc(-c2ccnn2C)c2ccnc(-c3ccn[nH]3)c2n1 (stereo not drawn) + COc1cc2nc(C)nc(NC(C)c3cc(N)cc(C(F)(F)F)c3)c2cc1OC1CCOC1
- pIC50 (second compound 0.0316 µM): 5.76
- pIC50 (second compound 0.1 µM): 6.04
- pIC50 (second compound 0.316 µM): < 5.52
- pIC50 (second compound 1 µM): 5.98
- pIC50 (second compound 3.16 µM): 5.60
- pIC50 (second compound 10 µM): < 5.52
- viability, T/C (second compound 0.0316 µM, first compound 0.00949 µM): 98.9%
- viability, T/C (second compound 0.0316 µM, first compound 0.03 µM): 92.4%
- viability, T/C (second compound 0.0316 µM, first compound 0.0949 µM): 86.8%
- viability, T/C (second compound 0.0316 µM, first compound 0.3 µM): 75.7%
- viability, T/C (second compound 0.0316 µM, first compound 0.949 µM): 55.9%
- viability, T/C (second compound 0.0316 µM, first compound 3 µM): 43.9%
- viability, T/C (second compound 0.1 µM, first compound 0.00949 µM): 83.2%
- viability, T/C (second compound 0.1 µM, first compound 0.03 µM): 81.1%
- viability, T/C (second compound 0.1 µM, first compound 0.0949 µM): 79.7%
- viability, T/C (second compound 0.1 µM, first compound 0.3 µM): 80.4%
- viability, T/C (second compound 0.1 µM, first compound 0.949 µM): 48.8%
- viability, T/C (second compound 0.1 µM, first compound 3 µM): 46.4%
- viability, T/C (second compound 0.316 µM, first compound 0.00949 µM): 82.2%
- viability, T/C (second compound 0.316 µM, first compound 0.03 µM): 95%
- viability, T/C (second compound 0.316 µM, first compound 0.0949 µM): 80.3%
- viability, T/C (second compound 0.316 µM, first compound 0.3 µM): 79.8%
- viability, T/C (second compound 0.316 µM, first compound 0.949 µM): 47.6%
- viability, T/C (second compound 0.316 µM, first compound 3 µM): 52.4%
- viability, T/C (second compound 1 µM, first compound 0.00949 µM): 88.3%
- viability, T/C (second compound 1 µM, first compound 0.03 µM): 89.8%
- viability, T/C (second compound 1 µM, first compound 0.0949 µM): 95.8%
- viability, T/C (second compound 1 µM, first compound 0.3 µM): 72.1%
- viability, T/C (second compound 1 µM, first compound 0.949 µM): 53.3%
- viability, T/C (second compound 1 µM, first compound 3 µM): 37.3%
- viability, T/C (second compound 3.16 µM, first compound 0.00949 µM): 79%
- viability, T/C (second compound 3.16 µM, first compound 0.03 µM): 94.1%
- viability, T/C (second compound 3.16 µM, first compound 0.0949 µM): 93.2%
- viability, T/C (second compound 3.16 µM, first compound 0.3 µM): 81.7%
- viability, T/C (second compound 3.16 µM, first compound 0.949 µM): 59.5%
- viability, T/C (second compound 3.16 µM, first compound 3 µM): 48.2%
- viability, T/C (second compound 10 µM, first compound 0.00949 µM): 63.3%
- viability, T/C (second compound 10 µM, first compound 0.03 µM): 72.6%
- viability, T/C (second compound 10 µM, first compound 0.0949 µM): 65.2%
- viability, T/C (second compound 10 µM, first compound 0.3 µM): 60.4%
- viability, T/C (second compound 10 µM, first compound 0.949 µM): 59.4%
- viability, T/C (second compound 10 µM, first compound 3 µM): 59%

SMILES: CC1OCC2(CCN(c3cnc(Sc4ccnc(N)c4Cl)c(N)n3)CC2)C1N (stereo not drawn) + COc1cc2nc(C)nc(NC(C)c3cc(N)cc(C(F)(F)F)c3)c2cc1OC1CCOC1
- pIC50 (second compound 0.0316 µM): 5.20
- pIC50 (second compound 0.1 µM): 5.21
- pIC50 (second compound 0.316 µM): < 5.00
- pIC50 (second compound 1 µM): 5.21
- pIC50 (second compound 3.16 µM): 5.28
- pIC50 (second compound 10 µM): 5.43
- viability, T/C [1]: 101%
- viability, T/C [2]: 111%
- viability, T/C [3]: 91.8%
- viability, T/C [4]: 64.4%
- viability, T/C [5]: 70.6%
- viability, T/C [6]: 40.4%
- viability, T/C [7]: 115%
- viability, T/C [8]: 90.7%
- viability, T/C [9]: 76.8%
- viability, T/C [10]: 72.4%
- viability, T/C [11]: 63%
- viability, T/C [12]: 40.8%
- viability, T/C [13]: 80.7%
- viability, T/C [14]: 95.2%
- viability, T/C [15]: 88%
- viability, T/C [16]: 63.1%
- viability, T/C [17]: 60.2%
- viability, T/C [18]: 54.2%
- viability, T/C [19]: 83.6%
- viability, T/C [20]: 100%
- viability, T/C [21]: 67.5%
- viability, T/C [22]: 72.3%
- viability, T/C [23]: 57.9%
- viability, T/C [24]: 44.3%
- viability, T/C [25]: 82%
- viability, T/C [26]: 86.8%
- viability, T/C [27]: 86.9%
- viability, T/C [28]: 65%
- viability, T/C [29]: 59.2%
- viability, T/C [30]: 41.5%
- viability, T/C [31]: 68.7%
- viability, T/C [32]: 73.8%
- viability, T/C [33]: 69.8%
- viability, T/C [34]: 59%
- viability, T/C [35]: 56.7%
- viability, T/C [36]: 27%

SMILES: CCNC(=O)CC1N=C(c2ccc(Cl)cc2)c2cc(OC)ccc2-n2c(C)nnc21 (stereo not drawn) + COc1cc2nc(C)nc(NC(C)c3cc(N)cc(C(F)(F)F)c3)c2cc1OC1CCOC1
- pIC50 (second compound 0.0316 µM): < 5.00
- pIC50 (second compound 0.1 µM): < 5.00
- pIC50 (second compound 0.316 µM): < 5.00
- pIC50 (second compound 1 µM): < 5.00
- pIC50 (second compound 3.16 µM): < 5.00
- pIC50 (second compound 10 µM): < 5.00
- viability, T/C [1]: 89.6%
- viability, T/C [2]: 94%
- viability, T/C [3]: 94.3%
- viability, T/C [4]: 113%
- viability, T/C [5]: 114%
- viability, T/C [6]: 120%
- viability, T/C [7]: 78.7%
- viability, T/C [8]: 86.2%
- viability, T/C [9]: 89.3%
- viability, T/C [10]: 85.6%
- viability, T/C [11]: 124%
- viability, T/C [12]: 84.3%
- viability, T/C [13]: 86.4%
- viability, T/C [14]: 90.2%
- viability, T/C [15]: 105%
- viability, T/C [16]: 99.6%
- viability, T/C [17]: 89.5%
- viability, T/C [18]: 88.5%
- viability, T/C [19]: 89.8%
- viability, T/C [20]: 79.9%
- viability, T/C [21]: 73%
- viability, T/C [22]: 105%
- viability, T/C [23]: 100%
- viability, T/C [24]: 90%
- viability, T/C [25]: 73.5%
- viability, T/C [26]: 81.1%
- viability, T/C [27]: 75.9%
- viability, T/C [28]: 82.3%
- viability, T/C [29]: 84.6%
- viability, T/C [30]: 109%
- viability, T/C [31]: 60.6%
- viability, T/C [32]: 55.9%
- viability, T/C [33]: 69.5%
- viability, T/C [34]: 70%
- viability, T/C [35]: 82.1%
- viability, T/C [36]: 74.8%

SMILES: Cn1nccc1Nc1nccc(-c2cc3c(s2)C(C)(C)N(CCN2CCOCC2)C3=O)n1 + COc1cc2nc(C)nc(NC(C)c3cc(N)cc(C(F)(F)F)c3)c2cc1OC1CCOC1
- pIC50 (second compound 0.0316 µM): 5.62
- pIC50 (second compound 0.1 µM): 5.63
- pIC50 (second compound 0.316 µM): 5.59
- pIC50 (second compound 1 µM): 5.59
- pIC50 (second compound 3.16 µM): 5.59
- pIC50 (second compound 10 µM): 5.65
- viability, T/C [1]: 104%
- viability, T/C [2]: 124%
- viability, T/C [3]: 124%
- viability, T/C [4]: 108%
- viability, T/C [5]: 32.1%
- viability, T/C [6]: 4.35%
- viability, T/C [7]: 90.2%
- viability, T/C [8]: 115%
- viability, T/C [9]: 110%
- viability, T/C [10]: 92.1%
- viability, T/C [11]: 34.4%
- viability, T/C [12]: 4.06%
- viability, T/C [13]: 108%
- viability, T/C [14]: 119%
- viability, T/C [15]: 107%
- viability, T/C [16]: 95%
- viability, T/C [17]: 39.9%
- viability, T/C [18]: 3.01%
- viability, T/C [19]: 85.6%
- viability, T/C [20]: 113%
- viability, T/C [21]: 113%
- viability, T/C [22]: 106%
- viability, T/C [23]: 37.8%
- viability, T/C [24]: 7.24%
- viability, T/C [25]: 92.5%
- viability, T/C [26]: 111%
- viability, T/C [27]: 121%
- viability, T/C [28]: 104%
- viability, T/C [29]: 38.5%
- viability, T/C [30]: 3.79%
- viability, T/C [31]: 72.5%
- viability, T/C [32]: 92.9%
- viability, T/C [33]: 93.5%
- viability, T/C [34]: 88.5%
- viability, T/C [35]: 33.6%
- viability, T/C [36]: 0.79%
